Entries after “also recorded” stand apart in the source; their conditions may differ. Where two headings read alike, the source gives them in different places.
Experiments:
[1] = tested on: mice; assay: spontaneous locomotor activity in the photocell chamber; assay type: in vivo; settings: for ED50: Mus musculus, read-out: Spontaneous Locomotor Activity: Depressant Dose 50% (dose reducing activity to 50 percent of control)
[2] = motor coordination, rotorod method; assay type: in vivo; settings: mouse, mice; for TD50: read-out: Loss of Motor Coordination, ED50; for NOAEL: read-out: dose until which there is no significant impairment of motor coordination (rotorod)
Procedure: There is no significant impairment of motor coordination as determined with the rotorod method (Kinnard, W. J. and Carr, C. J., J. Pharmacol. Exptl. Therap., 121: 354 (1957)), on the other hand, until doses of 900 mg/kg, p.o. or 500-900 mg/kg i.p. have been administered.

[3] = tested on: mice; assay: protection against maximal electroshock; assay type: in vivo; settings: Mus musculus, read-out: Anticonvulsant Protective Dose, 50% (Maximum Electroshock)
[4] = tested on: mice; assay: prolongation of loss of the righting reflex produced by barbital or hexobarbital; assay type: in vivo; settings: i.p., appropriate doses of barbital or hexobarbital
[5] = acute LD50; settings: mouse, in vivo, mice
[6] = sedative / central nervous system depressant properties; assay type: in vivo; settings: in words

With `O=C1CCC2(CCC(=O)c3ccccc32)C(=O)N1` (centres unmarked) [Example 1, 2,3-dihydrospiro-[naphthalene-1(4H),3'-piperidine]-2',4,6'-trione] the ED50 ([1]; ip) was 50 to 60 mg/kg, the ED50 ([1]; po) was 150 mg/kg and the “Spontaneous Locomotor Activity: Depressant Dose 50% (dose reducing activity to 50 percent of control)” value ([1]; i.p.) was 50 to 60 mg/kg. The TD50 ([2]; ip, i.p.) was 500 to 900 mg/kg, the NOAEL ([2]; ip, i.p.) was 500 to 900 mg/kg and the TD50 ([2]; oral) was 900 mg/kg. It also gave an NOAEL ([2]; po, p.o.) of at least 900 mg/kg, an ED50 ([3]; ip) of 160 to 170 mg/kg and an ED50 ([3]; po) of 120 mg/kg. For the same compound, the “dose that significantly prolongs loss of the righting reflex produced by barbital or hexobarbital” value [4] was “about 300 mg/kg”, the LD50 ([5]; ip, intraperitoneally) was over 2000 mg/kg and the LD50 ([5]; po, orally) was over 2000 mg/kg. For the same compound, the “central nervous system depressant properties” value [6] was “central nervous system depressant properties”.

With `CCN1C(=O)CCC2(CCC(=O)c3ccccc32)C1=O` (centres unmarked) [Example 6, 1'-ethyl-2,3-dihydrospiro-[naphthalene-1(4H),3'-piperidine]-2',4,6'-trione] the sedative properties [6] was “has sedative properties”.

In the case of `COc1ccc2c(c1)C(=O)CCC21CCC(=O)N(C)C1=O` (centres unmarked) [Example 8, 2,3-dihydro-6-methoxy-1'-methylspiro[naphthalene-1(4H),3'-piperidine]-2',4,6'-trione], the sedative properties [6] is reported as “has sedative properties”.

For `Cc1ccc2c(c1)C(=O)CCC21CCC(=O)NC1=O` (centres unmarked) [Example 9, 2,3-dihydro-6-methylspiro[naphthalene-1(4H),3'-piperidine]-2',4,6'-trione], the sedative properties [6] was “has sedative properties”.

With `Cc1ccc2c(c1)C(=O)CCC21CCC(=O)N(C)C1=O` (centres unmarked) [Example 10, 1',6-dimethyl-2,3-dihydrospiro-[naphthalene-1(4H),3'-piperidine]-2',4,6'-trione] the sedative properties [6] was “has sedative properties”.

For `COc1cc2c(cc1OC)C1(CCC(=O)NC1=O)CCC2=O` (centres unmarked) [Example 11, 2,3-dihydro-6,7-dimethoxyspiro-[naphthalene-1(4H),3'-piperidine]-2',4,6'-trione], the sedative properties [6] was “has sedative properties”.

In the case of `COc1cc2c(cc1OC)C1(CCC2=O)CCC(=O)N(C)C1=O` (centres unmarked) [Example 12, 2,3-dihydro-6,7-dimethoxy-1'-methylspiro-[naphthalene-1(4H),3'-piperidine]-2',4,6'-trione], the sedative properties [6] is reported as “has sedative properties”.

For `O=C1CCC2(CC(=O)c3ccccc32)C(=O)N1` (centres unmarked) [Example 13, spiro-[indane-1,3'-piperidine]-2,3,6'-trione], the sedative properties [6] was “has sedative properties”.

With `O=C1CC2(CCC(=O)c3ccccc32)C(=O)N1` (centres unmarked) [Example 14, 2,3-dihydrospiro[naphthalene-1(4H),3'-pyrrolidine]-2',4,5'-trione] the sedative properties [6] was “has sedative properties”.

In the case of `Cc1cccc2c1C1(CCC(=O)NC1=O)CCC2=O` (centres unmarked) [Example 15, 2,3-dihydro-8-methylspiro-[naphthalene-1(4H),3'-piperidine]-2',4,6' -trione], the sedative properties [6] is reported as “has sedative properties”.

For `Cc1cccc2c1C1(CCC2=O)CCC(=O)N(C)C1=O` (centres unmarked) [Example 16, 2,3-dihydro-1',8-dimethylspiro-[naphthalene-1(4H),3'-piperidine]-2',4,6'-trione], the sedative properties [6] was “has sedative properties”.

With `O=C1CCC2(CCC(=O)c3cc(Cl)ccc32)C(=O)N1` (centres unmarked) [Example 17, 6-chloro-2,3-dihydrospiro[naphthalene-1(4H),3'-piperidine]-2',4,6'-trione] the sedative properties [6] was “has sedative properties”.

In the case of `CN1C(=O)CCC2(CCC(=O)c3cc(Cl)ccc32)C1=O` (centres unmarked) [Example 18, 6-chloro-2,3-dihydro-1'-methylspiro[naphthalene-1(4H),3'-piperidine]-2',4,6'-trione], the ED50 ([1]; po) is reported as 13 mg/kg, the “activity compared with the known compound (Example 1)” value ([1]; in words, as shown in the table) is reported as “substantially greater activity” and the TD50 ([2]; oral) is reported as 285 mg/kg. The sedative properties [6] was “has sedative properties; also recorded: particularly useful as a sedative”.

For `O=C1CCC2(CCC(=O)c3cc([N+](=O)[O-])ccc32)C(=O)N1` (centres unmarked) [Example 19, 2,3-dihydro-6-nitrospiro-[naphthalene-1(4H),3'-piperidine]-2',4,6'-trione], the sedative properties [6] was “has sedative properties”.

Source: patent publication US3985888A, “Methods of inducing sedation using certain spiroalkanone-imides” (Richardson-Merrell Inc., priority 1971, dated 1976)
